From the NIST ThermoML archive (doi:10.1021/je060271a)
Where “and” joins values, the source holds several entries; their conditions need not be identical. Equal values may be shown once. Numbers after ± are expanded uncertainties.

Settings: Liquid, Vibrating tube method

CCCCCC(=O)OCC(COC(=O)CCCCC)(COC(=O)CCCCC)COC(=O)CCCCC [pentaerythritol tetrahexanoate]
Settings | mass density
303.15 K, 32445 kPa | 1007.6 ± 1.2 kg/m3
303.15 K, 32464 kPa | 1007.7 ± 1.2 kg/m3
303.15 K, 32483 kPa | 1007.6 ± 1.2 kg/m3
303.15 K, 32506 kPa | 1007.5 ± 1.2 kg/m3
303.15 K, 32525 kPa | 1007.6 ± 1.2 kg/m3
303.15 K, 32544 kPa | 1007.5 ± 1.2 kg/m3
303.15 K, 32567 kPa | 1007.6 ± 1.2 kg/m3
303.15 K, 32586 kPa | 1007.6 ± 1.2 kg/m3
303.15 K, 32605 kPa | 1007.7 ± 1.2 kg/m3
303.15 K, 32624 kPa | 1007.6 ± 1.2 kg/m3
303.15 K, 32647 kPa | 1007.7 ± 1.2 kg/m3
303.15 K, 32808 kPa | 1007.7 ± 1.2 kg/m3
303.15 K, 32832 kPa | 1007.7 ± 1.2 kg/m3
303.15 K, 32851 kPa | 1007.8 ± 1.2 kg/m3
303.15 K, 32871 kPa | 1007.7 ± 1.2 kg/m3
303.15 K, 32895 kPa | 1007.8 ± 1.2 kg/m3
303.15 K, 33911 kPa | 1008.4 ± 1.2 kg/m3
303.15 K, 33938 kPa | 1008.4 ± 1.2 kg/m3
303.15 K, 33963 kPa | 1008.4 ± 1.2 kg/m3
303.15 K, 33989 kPa | 1008.3 ± 1.2 kg/m3
303.15 K, 34002 kPa | 1008.3 ± 1.2 kg/m3
303.15 K, 34011 kPa | 1008.3 ± 1.2 kg/m3
303.15 K, 34016 kPa | 1008.3 ± 1.2 kg/m3
303.15 K, 34028 kPa | 1008.4 ± 1.2 kg/m3
303.15 K, 34041 kPa | 1008.4 ± 1.2 kg/m3
303.15 K, 34057 kPa | 1008.4 ± 1.2 kg/m3
303.15 K, 34070 kPa | 1008.3 ± 1.2 kg/m3
303.15 K, 34166 kPa | 1008.4 ± 1.2 kg/m3
303.15 K, 34178 kPa | 1008.6 ± 1.2 kg/m3
303.15 K, 34182 kPa | 1008.4 ± 1.2 kg/m3
303.15 K, 34186 kPa | 1008.5 ± 1.2 kg/m3
303.15 K, 34190 kPa | 1008.5 ± 1.2 kg/m3
303.15 K, 34194 kPa | 1008.5 ± 1.2 kg/m3
303.15 K, 34195 kPa | 1008.6 ± 1.2 kg/m3
303.15 K, 34196 kPa | 1008.5 ± 1.2 kg/m3 and 1008.4 ± 1.2 kg/m3
303.15 K, 34197 kPa | 1008.5 ± 1.2 kg/m3
303.15 K, 34198 kPa | 1008.4 ± 1.2 kg/m3
303.15 K, 34425 kPa | 1008.7 ± 1.2 kg/m3
303.15 K, 34426 kPa | 1008.6 ± 1.2 kg/m3
303.15 K, 34427 kPa | 1008.6 ± 1.2 kg/m3
303.15 K, 34428 kPa | 1008.6 ± 1.2 kg/m3
303.15 K, 34430 kPa | 1008.8 ± 1.2 kg/m3 and 1008.6 ± 1.2 kg/m3
303.15 K, 34431 kPa | 1008.7 ± 1.2 kg/m3
303.15 K, 34432 kPa | 1008.8 ± 1.2 kg/m3
303.15 K, 34434 kPa | 1008.7 ± 1.2 kg/m3 and 1008.6 ± 1.2 kg/m3
303.16 K, 193.7 kPa | 988.5 ± 1.2 kg/m3 and 988.4 ± 1.2 kg/m3
303.16 K, 193.9 kPa | 988.4 ± 1.2 kg/m3
303.16 K, 194.1 kPa | 988.5 ± 1.2 kg/m3 and 988.4 ± 1.2 kg/m3
303.16 K, 194.3 kPa | 988.6 ± 1.2 kg/m3 and 988.4 ± 1.2 kg/m3
303.16 K, 194.4 kPa | 988.6 ± 1.2 kg/m3
303.16 K, 195.5 kPa | 988.4 ± 1.2 kg/m3
303.16 K, 195.6 kPa | 988.5 ± 1.2 kg/m3
303.16 K, 195.7 kPa | 988.5 ± 1.2 kg/m3
303.16 K, 196.9 kPa | 988.5 ± 1.2 kg/m3
303.16 K, 197.4 kPa | 988.5 ± 1.2 kg/m3 and 988.4 ± 1.2 kg/m3
303.16 K, 197.6 kPa | 988.4 ± 1.2 kg/m3
303.16 K, 197.7 kPa | 988.5 ± 1.2 kg/m3
303.16 K, 198.1 kPa | 988.5 ± 1.2 kg/m3
303.16 K, 199.6 kPa | 988.5 ± 1.2 kg/m3
303.16 K, 200 kPa | 988.5 ± 1.2 kg/m3
303.16 K, 200.2 kPa | 988.6 ± 1.2 kg/m3
303.16 K, 200.3 kPa | 988.4 ± 1.2 kg/m3
303.16 K, 200.5 kPa | 988.5 ± 1.2 kg/m3
303.16 K, 200.7 kPa | 988.4 ± 1.2 kg/m3
303.16 K, 201 kPa | 988.5 ± 1.2 kg/m3
303.16 K, 201.2 kPa | 988.5 ± 1.2 kg/m3
303.16 K, 201.4 kPa | 988.6 ± 1.2 kg/m3 and 988.3 ± 1.2 kg/m3
303.16 K, 201.6 kPa | 988.4 ± 1.2 kg/m3
303.16 K, 201.9 kPa | 988.5 ± 1.2 kg/m3
303.16 K, 202.2 kPa | 988.5 ± 1.2 kg/m3
303.16 K, 202.8 kPa | 988.5 ± 1.2 kg/m3
303.16 K, 202.9 kPa | 988.5 ± 1.2 kg/m3
303.16 K, 204.2 kPa | 988.5 ± 1.2 kg/m3
303.16 K, 207.1 kPa | 988.5 ± 1.2 kg/m3
303.16 K, 207.3 kPa | 988.5 ± 1.2 kg/m3
303.16 K, 207.8 kPa | 988.4 ± 1.2 kg/m3
303.16 K, 208 kPa | 988.5 ± 1.2 kg/m3
303.16 K, 208.2 kPa | 988.5 ± 1.2 kg/m3
303.16 K, 209 kPa | 988.5 ± 1.2 kg/m3
303.16 K, 209.2 kPa | 988.5 ± 1.2 kg/m3
303.16 K, 209.5 kPa | 988.6 ± 1.2 kg/m3
303.16 K, 209.7 kPa | 988.4 ± 1.2 kg/m3
303.16 K, 211.5 kPa | 988.5 ± 1.2 kg/m3
303.16 K, 211.8 kPa | 988.5 ± 1.2 kg/m3
303.16 K, 212.7 kPa | 988.4 ± 1.2 kg/m3 and 988.5 ± 1.2 kg/m3
303.16 K, 212.9 kPa | 988.5 ± 1.2 kg/m3
303.16 K, 219.3 kPa | 988.6 ± 1.2 kg/m3
303.16 K, 220.1 kPa | 988.5 ± 1.2 kg/m3
303.16 K, 220.8 kPa | 988.6 ± 1.2 kg/m3
303.16 K, 221.2 kPa | 988.6 ± 1.2 kg/m3 and 988.4 ± 1.2 kg/m3 and 988.5 ± 1.2 kg/m3
303.16 K, 221.4 kPa | 988.6 ± 1.2 kg/m3
303.16 K, 221.5 kPa | 988.6 ± 1.2 kg/m3
303.16 K, 221.9 kPa | 988.5 ± 1.2 kg/m3
303.16 K, 222.2 kPa | 988.6 ± 1.2 kg/m3
303.16 K, 222.4 kPa | 988.5 ± 1.2 kg/m3
303.16 K, 222.8 kPa | 988.6 ± 1.2 kg/m3
303.16 K, 223.1 kPa | 988.5 ± 1.2 kg/m3 and 988.4 ± 1.2 kg/m3
303.16 K, 223.3 kPa | 988.4 ± 1.2 kg/m3
303.16 K, 223.6 kPa | 988.5 ± 1.2 kg/m3
303.16 K, 223.8 kPa | 988.6 ± 1.2 kg/m3
303.16 K, 224 kPa | 988.4 ± 1.2 kg/m3
303.16 K, 224.1 kPa | 988.6 ± 1.2 kg/m3
303.16 K, 224.5 kPa | 988.4 ± 1.2 kg/m3
303.16 K, 225 kPa | 988.6 ± 1.2 kg/m3
303.16 K, 225.2 kPa | 988.4 ± 1.2 kg/m3
303.16 K, 225.7 kPa | 988.5 ± 1.2 kg/m3
303.16 K, 226 kPa | 988.4 ± 1.2 kg/m3
303.16 K, 226.6 kPa | 988.4 ± 1.2 kg/m3 and 988.6 ± 1.2 kg/m3
303.16 K, 227.1 kPa | 988.5 ± 1.2 kg/m3
303.16 K, 227.3 kPa | 988.6 ± 1.2 kg/m3 and 988.5 ± 1.2 kg/m3
303.16 K, 227.6 kPa | 988.5 ± 1.2 kg/m3 and 988.4 ± 1.2 kg/m3 and 988.6 ± 1.2 kg/m3
303.16 K, 231.4 kPa | 988.4 ± 1.2 kg/m3
303.16 K, 232 kPa | 988.5 ± 1.2 kg/m3
303.16 K, 232.1 kPa | 988.5 ± 1.2 kg/m3
303.16 K, 232.7 kPa | 988.5 ± 1.2 kg/m3
303.16 K, 233.9 kPa | 988.5 ± 1.2 kg/m3
303.16 K, 234 kPa | 988.5 ± 1.2 kg/m3 and 988.6 ± 1.2 kg/m3
303.16 K, 234.2 kPa | 988.5 ± 1.2 kg/m3
303.16 K, 234.6 kPa | 988.5 ± 1.2 kg/m3
303.16 K, 234.9 kPa | 988.5 ± 1.2 kg/m3
303.16 K, 235.4 kPa | 988.6 ± 1.2 kg/m3
303.16 K, 235.6 kPa | 988.6 ± 1.2 kg/m3
303.16 K, 236 kPa | 988.5 ± 1.2 kg/m3
303.16 K, 236.1 kPa | 988.6 ± 1.2 kg/m3
303.16 K, 236.3 kPa | 988.5 ± 1.2 kg/m3 and 988.6 ± 1.2 kg/m3
303.16 K, 236.8 kPa | 988.6 ± 1.2 kg/m3 and 988.5 ± 1.2 kg/m3
303.16 K, 237.2 kPa | 988.5 ± 1.2 kg/m3
303.16 K, 237.5 kPa | 988.6 ± 1.2 kg/m3
303.16 K, 237.7 kPa | 988.5 ± 1.2 kg/m3
303.16 K, 238 kPa | 988.6 ± 1.2 kg/m3 and 988.5 ± 1.2 kg/m3
303.16 K, 239.3 kPa | 988.5 ± 1.2 kg/m3
303.16 K, 239.4 kPa | 988.5 ± 1.2 kg/m3
303.16 K, 240 kPa | 988.5 ± 1.2 kg/m3 and 988.6 ± 1.2 kg/m3
303.16 K, 240.3 kPa | 988.4 ± 1.2 kg/m3
303.16 K, 240.5 kPa | 988.5 ± 1.2 kg/m3
303.16 K, 240.8 kPa | 988.5 ± 1.2 kg/m3
303.16 K, 241.3 kPa | 988.5 ± 1.2 kg/m3
303.16 K, 241.5 kPa | 988.5 ± 1.2 kg/m3
303.16 K, 241.7 kPa | 988.5 ± 1.2 kg/m3
303.16 K, 242.2 kPa | 988.6 ± 1.2 kg/m3
303.16 K, 242.6 kPa | 988.5 ± 1.2 kg/m3
303.16 K, 242.7 kPa | 988.6 ± 1.2 kg/m3
303.16 K, 242.9 kPa | 988.6 ± 1.2 kg/m3
303.16 K, 243.3 kPa | 988.4 ± 1.2 kg/m3
303.16 K, 243.4 kPa | 988.5 ± 1.2 kg/m3
